The results in this text go back to ChEMBL document CHEMBL1144227, “2,2'-Pyridoin derivatives protect HL-60 cells against oxidative stress” (Bioorg Med Chem Lett, 2008).

For series [1], the system named is HL-60. The experiment in a line: Toxicity against human HL-60 cells at 100 uM after 24 hrs by trypan blue exclusion assay. Format: cell-based. The following applies: hl-60, 24 h.
Series [2] deals with HL-60. The series is described as follows: Cytoprotective activity against hydrogen peroxide-induced cell death in human HL-60 cells assessed as cell viability at 30 uM after 24 hrs by trypan blue exclusion assay. The class given is functional. The settings on record: for viability at 30 µM: HL-60, 24 h, read-out: Activity.
Series [3] concerns HL-60. The experiment in a line: Radical scavenging activity in human HL-60 cells assessed as reduction of hydrogen peroxide-induced ROS generation at 30 uM after 1 hr by 2',7'-dichlorofluorescein diacetate based flow cytometry. The class given is functional, cell-based.
In series [4] the test system is HL-60. The series is described as follows: Toxicity against human HL-60 cells at 60 uM after 24 hrs by trypan blue exclusion assay. The following applies: hl-60, 24 h. The class given is cell-based.
Series [5] is described as follows: Antioxidant activity assessed as inhibition of lipid peroxidation. The class given is functional.
The subject of series [6] is HL-60. The series is described as follows: Radical scavenging activity in human HL-60 cells assessed as reduction of hydrogen peroxide-induced ROS generation at 30 uM administered 3 hrs before H2O2 challenge measured after 1 hr by 2',7'-dichlorofluorescein diacetate based flow cytometry. The class given is functional, cell-based. Background: Flow cytometry measures light scatter and fluorescence of single cells or particles in a stream.

Each structure is given as a SMILES string. Active and inactive are the calls of the source. The rule behind the calls is not given here.

For the molecule `Cc1ccc(C(=O)C(=O)c2ccc(C)cn2)nc1`, in the series on HL-60 [1], the Activity result is “Non-toxic”. Also, the result in the series with HL-60 [2] was Active.
As for `Cc1cccc(/C(O)=C(\O)c2cccc(C)n2)n1`, the Activity entry with HL-60 [1] is on record as “Non-toxic”. In addition, the viability at 30 µM in the series on HL-60 [2] amounted to 51.9%. Further, the outcome in the series with HL-60 [3] was Active.
With `O/C(=C(/O)c1ccccn1)c1ccccn1`, the Activity result in the series with HL-60 [1] was “Non-toxic”. The viability at 30 µM in the series with HL-60 [2] is 42.1%. For the same molecule, in the series with HL-60 [3], the outcome was Active.
With `COc1ccc(/C(O)=C(\O)c2ccc(OC)cn2)nc1`, the Activity result with HL-60 [4] is recorded as “Non-toxic”. In addition, the viability at 30 µM with HL-60 [2] amounted to 51.9%. Also, the outcome (with HL-60 [3]; in series [5]) was Active.
In the case of `Cc1cccc(C(=O)C(=O)c2cccc(C)n2)n1`, the Activity result with HL-60 [1] is “Non-toxic”. In the series with HL-60 [2], the outcome was Active.
In the case of `Cc1ccc(/C(O)=C(\O)c2ccc(C)cn2)nc1`, in the series on HL-60 [4], the Activity entry is recorded as “Non-toxic”. Moreover, the viability at 30 µM in the series on HL-60 [2] came to 51.9%. Further, the result (in the series on HL-60 [3]; in series [5]) was Active.
Turning to `O=C(C(=O)c1ccccn1)c1ccccn1`, the Activity result in the series on HL-60 [1] is on record as “Non-toxic”. The result with HL-60 [2] was Active.
For `Cc1cc(C(C)(C)C)c(O)c(C(C)(C)C)c1` [BUTYLATED HYDROXYTOLUENE], in the series with HL-60 [1], the Activity result is on record as “Toxic”.
On to `COc1cccc(/C(O)=C(\O)c2cccc(OC)n2)n1`, for which the Activity entry with HL-60 [1] is given as “Non-toxic”. Besides, in the series on HL-60 [2], the viability at 30 µM was found to be 51.9%. Further, the result (in the series on HL-60 [3]; in series [5]) was Active.
`COc1ccc(C(=O)C(=O)c2ccc(OC)cn2)nc1`: the Activity entry with HL-60 [1] is recorded as “Non-toxic”. For the same molecule, the outcome in the series with HL-60 [2] was inactive.
Consider `O=C1O[C@H]([C@@H](O)CO)C(O)=C1O` [ASCORBIC ACID], for which the viability at 30 µM in the series with HL-60 [2] stood at 37.9%. In addition, the outcome in the series with HL-60 [3] and in the series on HL-60 [6] was Active.
With `COc1cccc(C(=O)C(=O)c2cccc(OC)n2)n1`, in the series on HL-60 [1], the Activity result is reported as “Non-toxic”. Moreover, in the series on HL-60 [2], the outcome was Active.
